Source: patent US9522962B2, “Peptides, conjugates and method for increasing immunogenicity of a vaccine” (Academisch Ziekenhuis Leiden h.o.d.n. LUMC, priority 2010, dated 2016)
“Also recorded” adds a separate entry of the source. Where two headings read alike, the source gives them in different places. Square brackets hold non-standard residues; d marks the D form. Ends that are not written are not given here. * marks the point of attachment. Biotin = O=C1N[C@H]2[C@H](CS[C@H]2CCCCC(=O)*)N1; Ahx = NCCCCCC(=O)O

Key:
[1] = tested on: antibodies in TETAQUIN® (anti-TTd antibodies); assay type: binding, human
[2] = tested on: antibodies in individual human sera (e.g. serum 034960); experiment: Tettox ELISA of biotinylated peptides on individual human sera; assay type: binding; conditions: for ELISA OD SERUM 034960: human serum 034960 diluted 100x
Description: a 96-wells plate (preferably from Euro-Diagnostica, Arnhem, The Netherlands) is coated with streptavidin. The streptavidin coated 96 wells plate is blocked with PBS containing 5% BSA (200 μl/well, 1 h, room temperature). Subsequently, the plate is washed three times with PBS containing 0.05% TWEEN20® (polysorbate 20). A biotinylated peptide is coated by 1 h incubation at room temperature with 100 μl/well of a 2 μg/ml solution of the biotinylated peptide in PBS containing 1% BSA. The plate is washed three times with PBS containing 0.05% TWEEN20® (polysorbate 20) followed by incubation for 1 h at room temperature with 100 μl serum from […] a human subject as defined above (preferably having a high titer of anti-TTd antibodies) that had been diluted at least 100, 200, 400, 500 or 1000 times and preferably not more than 100,000, 10,000, 7,500, 5,000 or 2,500 times with PBS containing 1% BSA. Then the plate is washed three times with PBS containing 0.05% TWEEN20®(polysorbate 20). Each well is incubated for 1 h at room temperature with a HRP-conjugated IgG antibody (mouse anti-human IgG-HRP monoclonal, clone G18-145, cat no 555788, Becton Dickinson, 100 μl/well of a 1000× dilution in PBS containing 0.05% TWEEN20® (polysorbate 20)) after which the plate is washed three times with PBS containing 0.05% TWEEN20® (polysorbate 20). Development is performed with 2,2′-azino-di-(3-ethylbenzthiazoline sulfonic acid), ABTS+H2O2 1/1000, 100 μl/well. Optical density is measured at 415 nm with a BIO-RAD, model 680, microplate reader. In each plate, preferably a negative contol is included, more preferably at least in triplicate. A preferred negative contol is serum from a human subject without detectable anti-TTd antibodies. Another preferred negative control is a solution of BSA. A peptide according to (ii) above is a peptide according to the invention if it is bound by antibodies in at least 40, 45, 50, 55, 60, 65, 70, 75, 80, 85, 87, 90, 91, 92, 93, 94, 95, 96, 97, 98, 99% most preferably 100% of the tested human serum samples. A peptide is considered to be bound by antibodies in a serum sample if the determined optical density for that particular serum sample is at least 2.0, more preferably 2.5, 3.0, 3.5 or more times higher as compared to the optical density that is determined for the negative control.
Streptavidin coated 96 wells plates (Euro-Diagnostica) were blocked with PBS containing 5% BSA (200 μl/well, 1 h, room temperature). Plates were washed three times with PBS containing 0.05% TWEEN20® (polysorbate 20). Coating of the biotinylated peptides was performed by 1 h incubation at room temperature with 100 μl/well of a 2 μg/ml solution of the biotinylated peptide in PBS containing 1% BSA. Plates were washed three times with PBS containing 0.05% TWEEN20®. Wells were incubated for 1 h at room temperature with either 100 μl TETAQUIN® […] that had been diluted 800× with PBS containing 1% BSA or with 100 μl human serum that had been diluted 100× with PBS containing 1% BSA. Plates were washed three times with PBS containing 0.05% TWEEN20® (polysorbate 20). Each well was incubated for 1 h at room temperature with a HRP-conjugated IgG antibody (mouse anti-human IgG-HRP monoclonal, clone G18-145, cat no 555788, Becton Dickinson, 100 μl/well of a 1000× dilution in PBS containing 0.05% TWEEN20® (polysorbate 20)). Plates were washed three times with PBS containing 0.05% TWEEN20® (polysorbate 20). Development was performed with 2,2′-azino-di-(3-ethylbenzthiazoline sulfonic acid), ABTS+H2O2 1/1000, 100 μl/well. Optical density was measured at 415 nm with a BIO-RAD, model 680, microplate reader.
Thereafter, the inventors tested these 7 peptides on individual sera, because an epitope is needed to which every person makes antibodies.

[3] = Table 6, conservative substitutions scan of […]

Substance | ELISA OD TETAQUIN ([1]; Table 5, Ala scan of […]) | ELISA OD SERUM 034960 ([2]; Table 5, Ala scan of […]) | ELISA OD TETAQUIN [1, 3] | ELISA OD SERUM 034960 [2, 3] | further results
F I G I T E L K K L E A K I N K V F Z O (FIGITELKKLEAKINKVF[Ahx]K; not fully specified (residue 20)) [0942-21] | 1.27 | 1.48 | – | – | –
F I G I T E L K K I E S K I N K V F Z O [0942-37] | – | – | 1.11 | 1.14 | –
F I G I T E L K K L E S K L N K V F Z O (FIGITELKKLESKLNKVF[Ahx]K(Biotin)) [0942-41] | – | – | 1.11 | 1.32 | –
F A G I T E L K K L E S K I N K V F Z O [0942-11] | 1.04 | 1.18 | – | – | –
F I G I T E L K K A E S K I N K V F Z O [0942-19] | 0.70 | 0.71 | – | – | –
F I S I T E L K K L E S K I N K V F Z O (FISITELKKLESKINKVF[Ahx]K(Biotin)) [0942-30] | – | – | 1.10 | 1.32 | –
F I G I T E L K R L E S K I N K V F Z O (FIGITELKRLESKINKVF[Ahx]K(Biotin)) [0942-36] | – | – | 1.12 | 1.23 | –
F I G I T E L K K L E S K I N K V Y Z O (FIGITELKKLESKINKVY[Ahx]K; not fully specified (residue 20); also: O: biotin modification, exact residue form not clear) [0942-45] | – | – | 1.11 | 1.23 | –
F I G I T E L K K L E S K I A K V F Z O (FIGITELKKLESKIAKVF[Ahx]K; not fully specified (residue 20)) [0942-24] | 1.37 | 1.29 | – | – | –
QYIKANSKFIGITELKKLESKIZO [β32] | – | – | – | – | binding to TETAQUIN (screen of overlapping 22-mer TTx peptides) ([1]; FIG. 3 (α-chain), FIG. 4 (β-chain)): good binding; also recorded: antibodies present; OD ([1]; Table 2, length variants of peptide β-32, section 'With linker', […] diluted 800x, OD at 415 nm): 1.3; OD ([1]; Table 2, length variants of peptide β-32, section 'Without linker' (sequence listed without Z O), […]): 1.3; ELISA OD, effect of longer spacer and C- versus N-terminal biotinylation ([1]; Table 4, antibody source not given): 1.16; antibodies against the peptide in individual donor sera ([2]; 14 individual sera, FIGS. 5a-5n): All donors have antibodies
Y I G I T E L K K L E S K I N K V F Z O (YIGITELKKLESKINKVF[Ahx]K(Biotin)) [0942-28] | – | – | 1.23 | 1.30 | –
F I G I T E L K A L E S K I N K V F Z O [0942-18] | 1.06 | 1.22 | – | – | –
F I G I T D L K K L E S K I N K V F Z O [0942-33] | – | – | 1.01 | 0.95 | –
F I G I T E L A K L E S K I N K V F Z O [0942-17] | 0.62 | 0.65 | – | – | –
F I G I T E L K K L E S K A N K V F Z O (FIGITELKKLESKANKVF[Ahx]K; not fully specified (residue 20)) [0942-23] | 0.88 | 1.08 | – | – | –
F I G I T E L K K L E S K I N A V F Z O (FIGITELKKLESKINAVF[Ahx]K; not fully specified (residue 20)) [0942-25] | 1.30 | 1.28 | – | – | –
F I G I T E L K K L E S K I N K V F Z O [0942-09] | 1.26 | 1.36 | 1.26 | 1.36 | OD ([1]; Table 3, further length variants and Lys(formyl) variants, […], neg. control OD 0.30): 2.30
F I G I T E L K K L E T K I N K V F Z O (FIGITELKKLETKINKVF[Ahx]K(Biotin)) [0942-39] | – | – | 0.88 | 1.04 | –

Substance | ELISA OD TETAQUIN ([1]; Table 5, Ala scan of […]) | ELISA OD SERUM 034960 ([2]; Table 5, Ala scan of […]) | ELISA OD TETAQUIN [1, 3] | ELISA OD SERUM 034960 [2, 3] | further results
F I G I T E L K K L E S K I Q K V F Z O (FIGITELKKLESKIQKVF[Ahx]K(Biotin)) [0942-42] | – | – | 1.41 | 1.26 | –
F I G I T E L K K L E S R I N K V F Z O (FIGITELKKLESRINKVF[Ahx]K(Biotin)) [0942-40] | – | – | 1.19 | 1.27 | –
F I G I T E L K K L E S K I N R V F Z O (FIGITELKKLESKINRVF[Ahx]K(Biotin)) [0942-43] | – | – | 1.26 | 1.31 | –
F I G I T E A K K L E S K I N K V F Z O [0942-16] | 0.90 | 0.91 | – | – | –
F I G I T E L K K L E S A I N K V F Z O (FIGITELKKLESAINKVF[Ahx]K; not fully specified (residue 20)) [0942-22] | 1.10 | 1.27 | – | – | –
F I G I T E I K K L E S K I N K V F Z O [0942-34] | – | – | 0.72 | 0.80 | –
F I G I T E L K K L E S K I N K V A Z O (FIGITELKKLESKINKVA[Ahx]K; not fully specified (residue 20)) [0942-27] | 1.26 | 1.20 | – | – | –
F I G I S E L K K L E S K I N K V F Z O [0942-32] | – | – | 0.83 | 0.70 | –
F I G I T E L K K L E S K I N K L F Z O (FIGITELKKLESKINKLF[Ahx]K; not fully specified (residue 20)) [0942-44] | – | – | 1.30 | 1.47 | –
F L G I T E L K K L E S K I N K V F Z O (FLGITELKKLESKINKVF[Ahx]K(Biotin)) [0942-29] | – | – | 1.19 | 1.29 | –
F I G I T E L K K L A S K I N K V F Z O (FIGITELKKLASKINKVF[Ahx]K; not fully specified (residue 20)) [0942-20] | 0.85 | 0.91 | – | – | –
F I G I A E L K K L E S K I N K V F Z O [0942-14] | 0.38 | 0.16 | – | – | –
F I G I T E L K K L D S K I N K V F Z O (FIGITELKKLDSKINKVF[Ahx]K; not fully specified (residue 20)) [0942-38] | – | – | 0.41 | 0.37 | –
F I A I T E L K K L E S K I N K V F Z O [0942-12] | 0.65 | 0.23 | – | – | –
F I G I T E L R K L E S K I N K V F Z O (FIGITELRKLESKINKVF[Ahx]K(Biotin)) [0942-35] | – | – | 1.02 | 0.90 | –
F I G I T E L K K L E S K I N K A F Z O (FIGITELKKLESKINKAF[Ahx]K; not fully specified (residue 20)) [0942-26] | 1.24 | 1.39 | – | – | –
F I G L T E L K K L E S K I N K V F Z O (FIGLTELKKLESKINKVF[Ahx]K(Biotin)) [0942-31] | – | – | 0.97 | 1.19 | –
